“Also recorded” adds a separate entry of the source.
Experiments:
[1] = Release of nitric oxide at acidic condition like artificial stomach; format: physicochemical; settings: HCl solution with NaCl and KCl; Sievers Nitric Oxide Analyzer 280i
Method: (§1) To figure the optimum fermentation condition allowing fixating and stabilization of the nitric oxide metabolites at the highest level, production amount of nitric oxide metabolites was examined depending on various fermentation temperatures, dissolved oxygen concentrations (level), and chemical oxygen demands. For measuring the nitric oxide metabolites, amount of nitric oxide was measured under acidic condition and also reducing condition using a chemical method and calculation was made for the nitric oxide metabolites. As for the acidic condition, a condition mimicking human stomach was created using hydrochloride (HCl) solution with sodium chloride (NaCl) and potassium chloride (KCl), and then nitric oxide metabolites were released in the solution. […] Thereafter, by using a nitric oxide detector (Sievers Nitric Oxide Analyzer 280i), amount of the nitric oxide metabolites fixated in fermented substance was measured.
(§2) As a test material, a fermented substance using garlic, cabbage, onion, bean sprouts, lettuce, soybean, or cricket, and sodium nitrite were used. […] As a result, from all samples other than sodium nitrite (residual nitrite ion concentration of 5 mg/L), nitrite ion was not detected.

[2] = Release of nitric oxide at reducing condition mimicking the intestinal condition of human body; format: physicochemical; settings: vitamin C and sodium chloride in phosphate buffer solution
Method: as §1, §2

[3] = samples collected after measurement at acidic or reduction condition
Method: as §2

[4] = tested on: rat injected with DOCA (high blood pressure); assay: Blood pressure-lowering effect in test animal of high blood pressure (Example 9-2); format: in vivo, Sprague Dawley (SD) rat; settings: 15-120 minutes; NaNO2 oral 18.6 mg/kg, test sample rectal 12.5 mg/kg as NO2-; once a day for 4 weeks
Method: The acclimated SD rat (8-week-old) was intraperitoneally injected with DOCA (deoxycorticosterone acetate; […] To determine an occurrence of high blood pressure, blood pressure was measured by using tail-cuff plethysmography (Muromachi Kikai, Japan), and animals with systolic blood pressure of at least 140 mmHg were selected and used for the test. When various plants rich in polyphenol are used, it is possible to obtain fermentation liquid containing both nitric oxide metabolites and polyphenol. In this example, fermented liquid obtained by fermenting Korean garlic was used for the test after concentration. Content of the nitric oxide metabolites in garlic fermentation concentrate which has been obtained after concentration was adjusted such that it is 200 ppm or higher in terms of NO2^−. It is preferable that the concentration step is carried out for 24 hours to 48 hours at temperature of 20° C. to 30° C. and stirring speed of 100 rpm to 300 rpm.

[5] = tested on: mouse injected with STZ (diabetes); assay: Oral glucose tolerance test for test animal of diabetes (Example 9-3); format: in vivo, C57BL/6 mouse; settings: glucose 2 g/kg; 15-120 minutes; NaNO2 oral 18.6 mg/kg, test sample rectal 12.5 mg/kg; once a day for 4 weeks
Method: (§3) As a test animal, 4-week-old male C57BL/6 mouse was obtained from Samtako (South Korea) and used. The test animals were acclimated for 1 week under the same breeding chamber condition as Example 5 above. The acclimated C57BL/6 mouse was then intraperitoneally injected once with STZ (streptozotocin; Sigma-Aldrich, USA) solution, which has been prepared at concentration of 120 mg/kg in 0.1 M citrate buffer (pH 4.5), to induce diabetes. Two weeks after administering STZ, the mouse was fasted for 16 hours and blood was taken from tail vein of the test animal to measure fasting blood glucose using a simple blood glucose meter (Glucotrend, Roche, Germany). […] Body weight, feed intake amount, and blood glucose level were measured twice a week. After one week, blood glucose level was measured again and test animals which maintained fasting blood glucose of not less than 200 mg/dL were selected and used for the test.
(§4) In this example, fermented liquid obtained by fermenting Korean garlic was used for the test after concentration. Content of the nitric oxide metabolites in garlic fermentation concentrate which has been obtained after concentration was adjusted such that it is 200 ppm or higher in terms of NO2^−. It is preferable that the concentration step is carried out for 24 hours to 48 hours at temperature of 20° C. to 30° C. and stirring speed of 100 rpm to 300 rpm.

[6] = tested on: test animal of diabetes (STZ); assay: Blood markers of diabetes and diabetes complications after 4 weeks of administration (Example 9-4); format: in vivo, C57BL/6 mouse; settings: 4 weeks once a day, NaNO2 oral, test sample rectal
Method: as §3, §4
To the test animal of diabetes prepared in Example 6, NaNO2 was administered orally once a day for 4 weeks or the test sample (garlic fermentation concentrate obtained by concentration) was administered rectally also once a day for 4 weeks. On the last day of test, blood was collected from all test animals to complete the test. After that, content of blood glucose, glycated hemoglobin, insulin, creatinine, and urea nitrogen in the collected blood were measured by using a diagnostic kit. Specifically, the blood glucose, glycated hemoglobin, and insulin of Table 3 were used for determining and analyzing the anti-diabetes effect, while creatinine and urea nitrogen of Table 3 were used for determining and analyzing the effect of alleviating the symptoms of diabetes complications. A decrease in kidney function is one of the diabetes complications, and creatinine and urea nitrogen are a clinical biomarker for measuring the kidney function.

[7] = tested on: mouse with DNFB-induced atopic dermatitis; assay: DNFB-induced atopic dermatitis mouse: visual examination, ear swelling, histopathology; format: in vivo, Balb/c mouse; settings: histopathological test, H&E, last day of test; control DNFB + DW 843.17 ± 55.22
Method: As a test animal, 5-week old male Balb/c mouse was obtained from Samtako (South Korea) and, after acclimatization for 1 week, used for the test. The breeding chamber for test animal has controlled light and darkness cycle with an interval of 12 hours, and temperature was maintained at 23±2° C. and humidity was maintained at 50 to 60%.
Cabbage fermentation extract was used as a test sample of the test, and, specifically, fermented cabbage which has been prepared according to the method of the present invention was frozen at −80° C. and freeze-dried for 5 days (PVTFD10R, Ilshin Lab, Korea). Thus-obtained powder was dissolved in distilled water and used as a test sample. […]
Anti-atopic effect was analyzed based on visual examination, ear swelling, measurement of interferon γ in blood serum, and histopathological examination. […]

Compound	release amount of nitric oxide at acidic condition like artificial stomach [1] [mg/L]	release amount of nitric oxide at reducing condition mimicking the intestinal condition of human body [2] [mg/L]	residual nitrite ion concentration [3] [mg/L]	change in blood pressure over time [4]	blood glucose level in OGTT [5]	Creatinine ([6]; control group 0.25 ± 0.05) [mg/dL]	Glycated hemoglobin ([6]; control group 7.5 ± 0.3) [%]	Urea nitrogen ([6]; control group 43.2 ± 0.8) [mg/dL]	Insulin ([6]; control group 80.0 ± 10.7) [ng/mL]	Fasting blood glucose ([6]; control group 480.0 ± 6.0, normal 106.0 ± 5.0) [mg/dL]	Ear thickness [7] [μm]
O=N[O-].[Na+] [NaNO2, sodium nitrite]	130.7	488.4	5	rapid decrease in blood pressure; also recorded: after the sharp decrease in initial blood pressure, the blood pressure has dramatically increased again	rapid decrease in blood glucose level; also recorded: no further decrease in the blood glucose level	0.18 ± 0.03	6.2 ± 0.3	37.1 ± 0.5	150.0 ± 9.5	320.0 ± 11.0	–
nitrite [DNFB + N]	–	–	–	–	–	–	–	–	–	–	463.67 ± 77.08
citrate [DNFB + CA]	–	–	–	–	–	–	–	–	–	–	593.17 ± 71.27
